Assay results: patent publication US5318967A, “2,3,3a,4,5,9b-hexahydro-1H-benzo[e]indole derivatives” (priority 1991, dated 1994)
Where a name gives a salt, the structure may show the parent alone. Read-outs that look alike come from different tables or passages of the source.

Key:
acetylcholine esterase = acetylcholine esterase (Homo sapiens, UniProt P22303); test: biochemical
Text: The determination of the acetylcholine esterase inhibition was effected according to the method of Ellmann et al., Biochem. Pharmacol. 7 (1961) 88, and/or according to the method of Johnson et al., Analytical Biochemistry 64 (1975), 229.

rat = test: Toxicity, lowest lethal dose (LLD), rat
mouse = test: Toxicity, lowest lethal dose (LLD), mouse; type: in vivo; details: po mouse
[1] = IC 50 for acetylcholine esterase inhibition
[2] = read-out: IC 50 for acetylcholine esterase inhibition

acetylcholine esterase, sequence (P22303 32-614): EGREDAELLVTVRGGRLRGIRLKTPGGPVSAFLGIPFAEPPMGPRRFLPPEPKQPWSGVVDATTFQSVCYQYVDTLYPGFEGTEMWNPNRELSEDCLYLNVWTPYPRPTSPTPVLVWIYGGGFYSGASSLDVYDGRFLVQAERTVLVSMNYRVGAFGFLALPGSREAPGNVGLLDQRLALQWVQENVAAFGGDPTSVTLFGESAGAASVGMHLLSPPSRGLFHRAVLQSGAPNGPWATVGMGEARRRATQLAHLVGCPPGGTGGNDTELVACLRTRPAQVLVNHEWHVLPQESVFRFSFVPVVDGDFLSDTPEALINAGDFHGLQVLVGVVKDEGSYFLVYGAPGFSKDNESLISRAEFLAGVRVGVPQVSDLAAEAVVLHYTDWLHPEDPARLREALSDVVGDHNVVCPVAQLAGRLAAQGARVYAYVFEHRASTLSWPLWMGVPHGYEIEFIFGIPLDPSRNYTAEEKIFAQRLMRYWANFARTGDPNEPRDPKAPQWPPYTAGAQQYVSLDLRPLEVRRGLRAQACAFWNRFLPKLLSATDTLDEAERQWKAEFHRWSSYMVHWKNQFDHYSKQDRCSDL

SMILES | IC50 (acetylcholine esterase; [1]) [nM] | LLD (lowest lethal dose) (rat; sc rat) [mg/kg] | IC50 (acetylcholine esterase; [2]) [nM] | further results
CN(C)C(=O)Oc1cccc2c1CC[C@H]1[C@@H]2CCN1CCC1CCCCC1.Cl (racemic) [C, rac-cis-3-(2-cyclohexylethyl)-2,3,3a,4,5,9b-hexahydro-1H-benzo[e]indol-6-yl dimethylcarbamate hydrochloride] | 16 |  |  | LLD (lowest lethal dose) (rat; ip rat): 30 mg/kg
CN(C)C(=O)Oc1cccc2c1CC[C@H]1[C@@H]2CCN1CCCCN1C(=O)c2ccccc2C1=O.Cl (racemic) [D, rac-cis-2,3,3a,4,5,9b-hexahydro-3-(4-phthalimidobutyl)-1H-benzo[e]indol-6-yl dimethylcarbamate hydrochloride] | 1.4 |  |  | LLD (lowest lethal dose) (rat; ip rat): 3 mg/kg
CN(C)C(=O)Oc1cccc2c1CC[C@H]1[C@@H]2CCN1CCCCCCN1C(=O)c2ccccc2C1=O.Cl (racemic) [E, rac-cis-2,3,3a,4,5,9b-hexahydro-3-(6-phthalimidohexyl)-1H-benzo[e]indol-6-yl dimethylcarbamate hydrochloride] | 0.4 | 10 |  | 
CN(C)C(=O)Oc1cccc2c1CC[C@H]1[C@@H]2CCN1CCN1CCOCC1.Cl.Cl (racemic) [F, rac-cis-2,3,3a,4,5,9b-hexahydro-3-(2-morpholinoethyl)-1H-benzo[e]indol-6-yl dimethylcarbamate dihydrochloride] | 108 | 30 |  | 
CCCN1CC[C@@H]2c3c(cccc3OC(=O)N(C)C)CC[C@@H]21 (racemic) [G, rac-cis-2,3,3a,4,5,9b-hexahydro-3-propyl-1H-benzo[e]indol-9-yl dimethylcarbamate] |  |  | 350 | LLD (lowest lethal dose) (mouse): 125 mg/kg
CCCN1C[C@@H](C)[C@@H]2c3cccc(OC(=O)N(C)C)c3CC[C@@H]21 (relative stereo) [H, rac-2,3,3aα,4,5,9bα-hexahydro-1α-methyl-3-propyl-1H-benzo[e]indol-6-yl dimethylcarbamate] |  | 100 | 488 | 
CCNC(=O)Oc1cccc2c1CC[C@H]1[C@@H]2CCN1CCC1CCCCC1 (single isomer, unassigned) [(+)-cis-3-(2-cyclohexylethyl)-2,3,3a,4,5,9b-hexahydro-1H-benzo[e]indol-6-yl ethylcarbamate] |  |  | 2460 | 
CCN(C)C(=O)Oc1cccc2c1CC[C@H]1[C@@H]2CCN1CCC1CCCCC1 (single isomer, unassigned) [(+)-cis-3-(2-cyclohexylethyl)-2,3,3a,4,5,9b-hexahydro-1H-benzo[e]indol-6-yl ethylmethylcarbamate] |  |  | 3.5 | 
CNC(=O)Oc1cccc2c1CC[C@H]1[C@@H]2CCN1CCC1CCCCC1 (single isomer, unassigned) [(+)-cis-3-(2-cyclohexylethyl)-2,3,3a,4,5,9b-hexahydro-1H-benzo[e]indol-6-yl methylcarbamate] |  |  | 18 | 
CCCNC(=O)Oc1cccc2c1CC[C@H]1[C@@H]2CCN1CCC1CCCCC1 (single isomer, unassigned) [(+)-cis-3-(2-cyclohexylethyl)-2,3,3a,4,5,9b-hexahydro-1H-benzo[e]indol-6-yl propylcarbamate] |  |  | 2.6 | 
CN(C)C(=O)Oc1cccc2c1CC[C@H]1[C@H]2CCN1CCC1CCCCC1 (single isomer, unassigned) [(+)-trans-3-(2-cyclohexylethyl)-2,3,3a,4,5,9b-hexahydro-1H-benzo[e]indol-6-yl dimethylcarbamate] |  |  | 22 | 
CN(C)C(=O)Oc1cccc2c1CC[C@H]1[C@@H]2CCN1CCC1CCCCC1 (single isomer, unassigned) [B, (-)-cis-3-(2-cyclohexylethyl)-2,3,3a,4,5,9b-hexahydro-1H-benzo[e]indol-6-yl dimethylcarabamate hydrochloride] |  | 30 | 30 | 
